What all share (assay type): biochemical
Assay [1] deals with T1, recombinant human VAP-1 (Homo sapiens, UniProt Q16853).
T1 construct: purchased R&D systems
T1 sequence (Q16853 1-763): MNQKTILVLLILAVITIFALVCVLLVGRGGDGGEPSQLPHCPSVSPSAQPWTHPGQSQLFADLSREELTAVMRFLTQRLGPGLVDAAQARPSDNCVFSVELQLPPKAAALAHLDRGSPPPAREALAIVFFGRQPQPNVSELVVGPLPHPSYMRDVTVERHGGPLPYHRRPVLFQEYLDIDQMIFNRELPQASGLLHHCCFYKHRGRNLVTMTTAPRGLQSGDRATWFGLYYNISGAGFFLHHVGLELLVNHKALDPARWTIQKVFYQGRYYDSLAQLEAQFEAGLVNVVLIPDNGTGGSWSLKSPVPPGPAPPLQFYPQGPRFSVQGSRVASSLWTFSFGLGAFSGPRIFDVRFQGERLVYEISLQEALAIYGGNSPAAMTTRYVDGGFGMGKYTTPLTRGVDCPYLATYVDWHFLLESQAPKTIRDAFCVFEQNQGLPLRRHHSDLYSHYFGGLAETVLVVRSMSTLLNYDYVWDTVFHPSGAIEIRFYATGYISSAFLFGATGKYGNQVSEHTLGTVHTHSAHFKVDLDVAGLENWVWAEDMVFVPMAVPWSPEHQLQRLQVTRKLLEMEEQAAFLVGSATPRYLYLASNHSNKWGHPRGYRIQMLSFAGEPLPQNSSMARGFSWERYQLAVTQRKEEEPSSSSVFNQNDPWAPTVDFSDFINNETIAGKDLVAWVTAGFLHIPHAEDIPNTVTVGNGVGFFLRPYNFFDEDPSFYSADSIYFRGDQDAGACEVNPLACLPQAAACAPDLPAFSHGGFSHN
Put plainly: Activity evaluation on recombinant human VAP-1 (Amplex Red/HRP-coupled hydrogen peroxide assay, benzylamine substrate). The note with it: read-out: Inhibitory Activity (IC50, nM) human VAP-1. An outline of the steps: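 Hydrogen peroxide from benzylamine (1 mM) oxidation by human recombinant VAP-1 detected via HRP-coupled Amplex Red (200 uM) fluorescence, kinetic over 1–2 h. Enzyme and compound preincubated 30 min at 37 °C, pH 7.4 phosphate; 8-point dose response, signal-rate decrease versus DMSO control fitted to four-parameter logistic for IC50.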

Assay [2] deals with T2, recombinant human MAO-A (monoamine oxidase-A) (Homo sapiens, UniProt P21397).
T2 construct: purchased Sigma-Aldrich
T2 sequence (P21397 1-527): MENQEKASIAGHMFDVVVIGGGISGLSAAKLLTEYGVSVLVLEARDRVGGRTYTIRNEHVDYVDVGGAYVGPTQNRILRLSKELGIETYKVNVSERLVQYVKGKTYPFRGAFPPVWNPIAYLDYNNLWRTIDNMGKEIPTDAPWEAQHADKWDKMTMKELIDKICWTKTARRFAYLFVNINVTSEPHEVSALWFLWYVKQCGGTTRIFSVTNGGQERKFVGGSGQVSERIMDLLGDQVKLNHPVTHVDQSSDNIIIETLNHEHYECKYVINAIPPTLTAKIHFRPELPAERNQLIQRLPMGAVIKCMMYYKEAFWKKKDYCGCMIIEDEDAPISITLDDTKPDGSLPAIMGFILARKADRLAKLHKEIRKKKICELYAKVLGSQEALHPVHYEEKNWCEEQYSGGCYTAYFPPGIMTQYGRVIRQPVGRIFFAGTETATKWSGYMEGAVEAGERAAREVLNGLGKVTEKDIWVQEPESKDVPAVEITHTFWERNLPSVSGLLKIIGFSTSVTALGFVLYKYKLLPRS
Put plainly: Activity evaluation on recombinant human MAO-A (Amplex Red/HRP-coupled assay, 0.5 mM tyramine substrate). The note with it: read-out: Inhibitory Activity (IC50, nM) MAO-A. In short, it runs like this:
(§1)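 Using an HRP-coupled Amplex Red readout (544/590 nm, kinetic over 1–2 h), IC50 values were fitted by 4-parameter logistic model to percent decrease in signal rate against DMSO control. Compounds (1:3 dilutions, 8 points, <1% DMSO) sat 30 min at 37 °C with enzyme in pH 7.4 phosphate buffer before substrate, 200 uM Amplex Red and HRP were added.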

Assay [3] addresses T3, recombinant human MAO-B (monoamine oxidase-B) (Homo sapiens, UniProt P27338).
T3 construct: purchased Sigma-Aldrich
T3 sequence (P27338 1-520): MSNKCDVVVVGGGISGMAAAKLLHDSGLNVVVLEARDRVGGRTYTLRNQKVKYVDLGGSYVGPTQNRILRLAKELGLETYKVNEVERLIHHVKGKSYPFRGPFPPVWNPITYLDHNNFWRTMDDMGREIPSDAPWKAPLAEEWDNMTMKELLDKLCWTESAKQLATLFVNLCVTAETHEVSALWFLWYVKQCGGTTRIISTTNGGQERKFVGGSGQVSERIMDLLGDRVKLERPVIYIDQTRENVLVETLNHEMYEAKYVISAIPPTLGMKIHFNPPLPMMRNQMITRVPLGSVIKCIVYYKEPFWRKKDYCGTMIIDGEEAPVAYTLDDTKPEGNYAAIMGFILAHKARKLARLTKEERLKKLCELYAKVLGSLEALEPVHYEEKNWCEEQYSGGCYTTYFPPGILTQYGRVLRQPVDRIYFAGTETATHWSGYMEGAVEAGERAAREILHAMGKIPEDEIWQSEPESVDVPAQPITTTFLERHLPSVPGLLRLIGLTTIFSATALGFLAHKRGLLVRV
Put plainly: Activity evaluation on recombinant human MAO-B (Amplex Red/HRP-coupled assay, 1 mM benzylamine substrate). Conditions: read-out: Inhibitory Activity (IC50, nM) MAO-B. An outline of the steps: as §1

In assay [4] the target is T4, recombinant human DAO (diamine oxidase) (Homo sapiens, UniProt P19801).
T4 construct: purchased R&D systems
T4 sequence (P19801 20-751): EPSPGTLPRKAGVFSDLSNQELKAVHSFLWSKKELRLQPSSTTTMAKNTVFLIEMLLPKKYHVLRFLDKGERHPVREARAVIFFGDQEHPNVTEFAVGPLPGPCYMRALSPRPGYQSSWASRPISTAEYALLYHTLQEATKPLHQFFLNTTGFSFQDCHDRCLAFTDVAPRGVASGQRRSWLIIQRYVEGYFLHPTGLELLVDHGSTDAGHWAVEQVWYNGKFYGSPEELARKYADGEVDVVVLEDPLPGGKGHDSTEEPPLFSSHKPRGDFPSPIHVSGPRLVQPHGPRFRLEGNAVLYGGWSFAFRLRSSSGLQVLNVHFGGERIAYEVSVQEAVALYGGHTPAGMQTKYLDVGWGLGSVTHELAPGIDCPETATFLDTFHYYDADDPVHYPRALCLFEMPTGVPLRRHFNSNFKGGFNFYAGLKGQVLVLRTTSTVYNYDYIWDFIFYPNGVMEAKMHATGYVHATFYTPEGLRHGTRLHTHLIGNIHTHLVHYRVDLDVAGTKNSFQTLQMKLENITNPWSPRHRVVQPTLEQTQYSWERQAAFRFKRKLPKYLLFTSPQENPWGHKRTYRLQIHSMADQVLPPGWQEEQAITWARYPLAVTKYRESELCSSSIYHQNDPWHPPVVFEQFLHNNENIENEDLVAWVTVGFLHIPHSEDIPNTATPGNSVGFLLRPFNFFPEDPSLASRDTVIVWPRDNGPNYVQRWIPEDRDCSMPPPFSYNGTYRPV
In words: Activity evaluation on recombinant human DAO (Amplex Red/HRP-coupled assay, 1 mM putrescine substrate). Conditions: read-out: Inhibitory Activity (IC50, nM) DAO. In short, it runs like this: as §1

The mark [5] stands for this setting: recombinant human VAP-1, 30 min preincubation at 37° C., 1 mM benzylamine.
The mark [6] stands for this setting: recombinant human VAP-1, benzylamine substrate.

The structures appear in SMILES notation. Structures can show the parent of a compound that is named as a salt. Where two headings read alike, the source gives them in different places.

One may read the IC50 as the point on the concentration scale where inhibition reaches its midpoint. `CCn1cc(-c2ccc(-n3cnn(CC(CN)=C(F)F)c3=O)cc2F)cn1` [Example 30, 2-[2-(aminomethyl)-3,3-difluoro-allyl]-4-[4-(1-ethylpyrazol-4-yl)-3-fluoro-phenyl]-1,2,4-triazol-3-one Trifluoroacetate]: the 50% inhibitory concentration (IC50) is 0.6 nM in assay [1] (setting [5]), more than 100000 nM in assay [2] (0.5 mM tyramine), 300 nM in assay [3] (1 mM benzylamine) and 890 nM in assay [4] (1 mM putrescine).

For `CN1C(=O)CCc2cc(-c3ccc(-n4cnn(CC(CN)=C(F)F)c4=O)cn3)ccc21` [Example 44, 6-[5-[1-[2-(aminomethyl)-3,3-difluoro-allyl]-5-oxo-1,2,4-triazol-4-yl]-2-pyridyl]-1-methyl-3,4-dihydroquinolin-2-one Trifluoroacetate], the IC50 in assay [1] (setting [5]) is 0.3 nM; in assay [2] (0.5 mM tyramine), more than 100000 nM; in assay [3] (1 mM benzylamine) it was 110 nM; in assay [4] (1 mM putrescine) it was 14 nM.

Take `NCC(Cn1ncn(Cc2sc(-c3ccc4c(c3)OCO4)cc2F)c1=O)=C(F)F` [Example 300, 2-[2-(aminomethyl)-3,3-difluoro-allyl]-4-[[5-(1,3-benzodioxol-5-yl)-3-fluoro-2-thienyl]methyl]-1,2,4-triazol-3-one Trifluoroacetate]: the IC50 was 1.7 nM in assay [1] (setting [6]), more than 100000 nM in assay [2] (0.5 mM tyramine substrate), 11100 nM in assay [3] (1 mM benzylamine substrate) and 25300 nM in assay [4] (1 mM putrescine substrate).

On to `NCC(Cn1ncn(Cc2ccc(C#Cc3ccc4c(c3)NCCO4)s2)c1=O)=C(F)F` [Example 164, 2-[2-(aminomethyl)-3,3-difluoro-allyl]-4-[[5-[2-(3,4-dihydro-2H-1,4-benzoxazin-6-yl)ethynyl]-2-thienyl]methyl]-1,2,4-triazol-3-one Ditrifluoroacetate], for which the IC50 is 2.5 nM in assay [1] (setting [5]), 4000 nM in assay [2] (0.5 mM tyramine), 34000 nM in assay [3] (1 mM benzylamine) and more than 10000 nM in assay [4] (1 mM putrescine).

As to `CN1C(=O)CCc2cc(-c3ccc(Cn4cnn(CC(CN)=C(F)F)c4=O)s3)ccc21` [Example 138, 6-[5-[[1-[2-(aminomethyl)-3,3-difluoro-allyl]-5-oxo-1,2,4-triazol-4-yl]methyl]-2-thienyl]-1-methyl-3,4-dihydroquinolin-2-one Trifluoroacetate], the IC50 is 0.1 nM in assay [1] (setting [5]), more than 100000 nM in assay [2] (0.5 mM tyramine), 15000 nM in assay [3] (1 mM benzylamine) and 13000 nM in assay [4] (1 mM putrescine).

With `CC(=O)N1CCN(c2ccc(-c3ccc(Cn4cnn(CC(CN)=C(F)F)c4=O)s3)cc2)CC1` [Example 108, 4-[[5-[4-(4-acetylpiperazin-1-yl)phenyl]-2-thienyl]methyl]-2-[2-(aminomethyl)-3,3-difluoro-allyl]-1,2,4-triazol-3-one Trifluoroacetate], the IC50 in assay [1] (setting [5]) is 2 nM; in assay [2] (0.5 mM tyramine), more than 10000 nM; in assay [3] (1 mM benzylamine), more than 10000 nM; in assay [4] (1 mM putrescine), 42000 nM.

For `CS(=O)(=O)c1ccc(-c2ccc3sc(Cn4cnn(CC(CN)=C(F)F)c4=O)cc3c2)cc1` [Example 205, 2-[2-(aminomethyl)-3,3-difluoro-allyl]-4-[[5-(4-methylsulfonylphenyl)benzothiophen-2-yl]methyl]-1,2,4-triazol-3-one Trifluoroacetate], the IC50 was 0.8 nM in assay [1] (setting [6]), more than 100000 nM in assay [2] (0.5 mM tyramine substrate), more than 100000 nM in assay [3] (1 mM benzylamine substrate) and 7670 nM in assay [4] (1 mM putrescine substrate).

For the compound `NCC(Cn1ncn(-c2ncc(-c3ccc4c(c3)OCO4)cc2F)c1=O)=C(F)F` [Example 85, 2-[2-(aminomethyl)-3,3-difluoro-allyl]-4-[5-(1,3-benzodioxol-5-yl)-3-fluoro-2-pyridyl]-1,2,4-triazol-3-one Trifluoroacetate], the IC50 in assay [1] (setting [5]) was 0.2 nM; in assay [2] (0.5 mM tyramine) it was more than 100000 nM; in assay [3] (1 mM benzylamine), 130 nM; in assay [4] (1 mM putrescine), 180 nM.

For the compound `CN1C(=O)CCc2cc(-c3cc(F)c(Cn4cnn(CC(CN)=C(F)F)c4=O)s3)ccc21` [Example 301, 6-[5-[[1-[2-(aminomethyl)-3,3-difluoro-allyl]-5-oxo-1,2,4-triazol-4-yl]methyl]-4-fluoro-2-thienyl]-1-methyl-3,4-dihydroquinolin-2-one trifluoroacetate], the IC50 in assay [1] (setting [6]) is 0.5 nM; in assay [2] (0.5 mM tyramine substrate), more than 100000 nM; in assay [3] (1 mM benzylamine substrate), more than 100000 nM; in assay [4] (1 mM putrescine substrate) it was 2680 nM.

As for `CS(=O)(=O)c1ccc(-c2ccc(Cn3cnn(CC(CN)=C(F)F)c3=O)s2)cc1` [Example 101, 2-[2-(aminomethyl)-3,3-difluoro-allyl]-4-[[5-(4-methylsulfonylphenyl)-2-thienyl]methyl]-1,2,4-triazol-3-one Trifluoroacetate], the IC50 in assay [1] (setting [5]) was 0.3 nM; in assay [2] (0.5 mM tyramine) it was more than 100000 nM; in assay [3] (1 mM benzylamine), 67000 nM; in assay [4] (1 mM putrescine) it was 21000 nM.

Regarding `CS(=O)(=O)c1ccc(-c2ccc(Cn3cnn(CC(CN)=C(F)F)c3=O)cc2)cc1` [Example 265, 2-[2-(aminomethyl)-3,3-difluoro-allyl]-4-[[4-(4-methylsulfonylphenyl)phenyl]methyl]-1,2,4-triazol-3-one Trifluoroacetate], the IC50 is 1.4 nM in assay [1] (setting [6]), more than 100000 nM in assay [2] (0.5 mM tyramine substrate), more than 100000 nM in assay [3] (1 mM benzylamine substrate) and more than 100000 nM in assay [4] (1 mM putrescine substrate).

Source of the values: patent publication US11168073B2, “3,3-difluoroallylamines or salts thereof and pharmaceutical compositions comprising the same” (YUHAN CORPORATION, priority 2018, dated 2021).
